Test results: patent US7414047B2, “Piperazinyl and diazapanyl benzamides and benzthioamides” (Janssen Pharmaceutica N.V., priority 2002, dated 2008)
pKi: −log10 of the molar value. Structures can show the parent of a compound that is named as a salt.

Target: T1, human histamine H3 receptor (Homo sapiens, UniProt Q9Y5N1)
T1 construct: One microgram of supercoiled H3 receptor cDNA was added to the cells and mixed; expressed in transfected cells; membranes prepared from cell pellets
Test: {3H}-N-methylhistamine binding
Protocol: Transfection of Cells with Human Histamine Receptor
A 10 cm tissue culture dish with a confluent monolayer of SK-N-MC cells was split two days prior to transfection. Using sterile technique the media was removed and the cells were detached from the dish by the addition of trypsin. One fifth of the cells were then placed onto a new 10 cm dish. Cells were grown in a 37° C. incubator with 5% CO2 in Minimal Essential Media Eagle with 10%. Fetal Bovine Serum. After two days cells were approximately 80% confluent. These were removed from the dish with trypsin and pelleted in a clinical centrifuge. The pellet was then re-suspended in 400 μL complete media and transferred to an electroporation cuvette with a 0.4 cm gap between the electrodes. One microgram of supercoiled H3 receptor cDNA was added to the cells and mixed. The voltage for the electroporation was set at 0.25 kV, the capacitance was set at 960 μF. After electroporation the cells were diluted into 10 mL complete media and plated onto four 10 cm dishes. Because of the variability in the efficiency of electroporation, four different concentrations of cells were plated. The ratios used were; 1:20, 1:10, 1:5, with the remainder of the cells being added to the fourth dish. […] After 10 days dishes were analyzed for surviving colonies of cells. Dishes with well-isolated colonies were used. Cells from individual colonies were isolated and tested. SK-N-MC cells were used because they give efficient coupling for inhibition of adenylate cyclase. The clones that gave the most robust inhibition of adenylate cyclase in response to histamine were used for further study.
{^3H}-N-methylhistamine Binding
Cell pellets from histamine H3 receptor-expressing SK-N-MC cells were homogenized in 20 mM TrisHCl/0.5 mM EDTA. Supernatants from an 800 g spin were collected, recentrifuged at 30,000 g for 30 min. Pellets were re-homogenized in 50 mM Tris/5 mM EDTA (pH 7.4). […] Filters were dried, added to 4 mL scintillation cocktail and then counted on a liquid scintillation counter. Non-specific binding was defined with 10 μM histamine.

T1 sequence (Q9Y5N1 whole entry): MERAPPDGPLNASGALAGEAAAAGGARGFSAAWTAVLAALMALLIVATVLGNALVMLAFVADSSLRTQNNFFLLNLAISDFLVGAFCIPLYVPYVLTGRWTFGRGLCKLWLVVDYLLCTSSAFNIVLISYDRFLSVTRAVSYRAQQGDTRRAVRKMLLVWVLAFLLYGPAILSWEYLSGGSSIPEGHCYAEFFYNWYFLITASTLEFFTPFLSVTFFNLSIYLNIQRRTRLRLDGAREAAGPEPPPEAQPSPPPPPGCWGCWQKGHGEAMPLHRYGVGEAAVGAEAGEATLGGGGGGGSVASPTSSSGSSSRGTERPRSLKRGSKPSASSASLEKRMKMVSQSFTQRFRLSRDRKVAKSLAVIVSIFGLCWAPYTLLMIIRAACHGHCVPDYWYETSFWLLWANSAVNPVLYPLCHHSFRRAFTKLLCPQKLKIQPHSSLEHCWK

| pKi | SMILES |
| --- | --- |
| 8.52 | CC(C)N1CCN(C(=O)c2ccc(CNCc3ccccc3)cc2)CC1 [Example 58, {4-(Benzylamino-methyl)-phenyl}-(4-isopropyl-piperazin-1-yl)-methanone dihydrochloride] |
| 7.64 | CC(C)N1CCN(C(=O)c2ccc(CNc3ccccc3)cc2)CC1 [Example 59, (4-Isopropyl-piperazin-1-yl)-(4-phenylaminomethyl-phenyl)-methanone dihydrochloride] |
| 9.00 | CC(C)N1CCN(C(=O)c2ccc(CN3CCCCCC3)cc2)CC1 [Example 60, (4-Azepan-1-ylmethyl-phenyl)-(4-isopropyl-piperazin-1-yl)-methanone dihydrochloride] |
| 9.00 | CC(C)N1CCN(C(=O)c2ccc(CN3CCCC3)cc2)CC1 [Example 61, (4-Isopropyl-piperazin-1-yl)-(4-pyrrolidin-1-ylmethyl-phenyl)-methanone dihydrochloride] |
| 8.30 | CC(C)N1CCN(C(=O)c2ccc(CN(C)C)cc2)CC1 [Example 62, (4-Dimethylaminomethyl-phenyl)-(4-isopropyl-piperazin-1-yl)-methanone dihydrochloride] |
| 9.00 | O=C(c1ccc(CN2CCCCC2)cc1)N1CCN(C2CCCCC2)CC1 [Example 66, (4-Cyclohexyl-piperazin-1-yl)-(4-piperidin-1-ylmethyl-phenyl)-methanone] |
| 8.70 | CC(C)N1CCN(C(=O)c2ccc(CN3CCSCC3)cc2)CC1 [Example 67, (4-Isopropyl-piperazin-1-yl)-(4-thiomorpholin-4-ylmethyl-phenyl)-methanone] |
| 8.70 | CCCN(CCOC)Cc1ccc(C(=O)N2CCN(C(C)C)CC2)cc1 [Example 68, (4-Isopropyl-piperazin-1-yl)-(4-{[(2-methoxy-ethyl)-propyl-amino]-methyl}-phenyl)-methanone] |
| 8.52 | CCN(CCOC)Cc1ccc(C(=O)N2CCN(C(C)C)CC2)cc1 [Example 69, (4-{[Ethyl-(2-methoxy-ethyl)-amino]-methyl}-phenyl)-(4-isopropyl-piperazin-1-yl)-methanone] |
| 8.70 | COCCNCc1ccc(C(=O)N2CCN(C(C)C)CC2)cc1 [Example 70, (4-Isopropyl-piperazin-1-yl)-{4-[(2-methoxy-ethylamino)-methyl]-phenyl}-methanone] |
| 8.40 | CC(C)N1CCN(C(=O)c2ccc(CNc3ccccn3)cc2)CC1 [Example 71, (4-Isopropyl-piperazin-1-yl)-[4-(pyridin-2-ylaminomethyl)-phenyl]-methanone] |
| 8.52 | COCC(C)NCc1ccc(C(=O)N2CCN(C(C)C)CC2)cc1 (stereo not drawn) [Example 72, (4-Isopropyl-piperazin-1-yl)-{4-[(2-methoxy-1-methyl-ethylamino)-methyl]-phenyl}-methanone] |
